Experimental findings from patent US20250092064A1, “BENZOTRIAZOLE COMPOUND” (DAIICHI SANKYO COMPANY, LIMITED, priority 2022, published 2025) are described below.

binding between Nrf2 and Keap1, sequence (Q14145 325-624 limits assumed): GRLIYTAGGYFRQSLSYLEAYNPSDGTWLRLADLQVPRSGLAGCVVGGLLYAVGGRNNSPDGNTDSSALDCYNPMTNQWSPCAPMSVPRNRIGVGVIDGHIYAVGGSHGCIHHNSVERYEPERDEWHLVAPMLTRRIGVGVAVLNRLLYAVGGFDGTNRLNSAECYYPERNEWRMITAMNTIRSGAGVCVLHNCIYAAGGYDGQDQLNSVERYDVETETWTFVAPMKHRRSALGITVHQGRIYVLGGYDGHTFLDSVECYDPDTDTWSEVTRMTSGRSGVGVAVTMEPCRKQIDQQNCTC

The experiment concerns the target binding between Nrf2 and Keap1 (Homo sapiens (Human), UniProt Q14145). The experiment is described as follows: FP assay (in vitro): inhibition of Nrf2-Keap1 binding by fluorescence polarization. The settings on record: GST-fused human Keap1 (325-642) 20 nM, FITC-labeled Nrf2 peptide 10 nM, 2 hr at room temperature.
For `CC[C@@H]1CN(Cc2cc(C(CC(=O)O)c3cc(Cl)c4c(nnn4C)c3C)cc3c2CCC3)[C@@H](C)c2ncccc2O1` (single isomer, unassigned) [Example 72, (3S*)-3-(7-Chloro-1,4-dimethyl-1H-benzotriazol-5-yl)-3-(7-{[(2R,5S)-2-ethyl-5-methyl-2,3-dihydropyrido[2,3-f][1, 4]oxazepin-4(5H)-yl]methyl}-2,3-dihydro-1H-inden-5-yl)propanoic acid], the IC50 (as a rule, the midpoint of a concentration-inhibition curve) was not above 10 nM. Under `CCC1c2ncccc2O[C@H](CC)CN1Cc1cc([C@H](CC(=O)O)c2ccc3c(nnn3C)c2C)cc2ccsc12` (single isomer, unassigned) [Example 77, (3S)-3-(7-{[(2R,5S*)-2,5-Diethyl-2,3-dihydropyrido[2,3-f][1,4]oxazepin-4(5H)-yl]methyl}-1-benzothiophen-5-yl)-3-(1,4-dimethyl-1H-benzotriazol-5-yl)propanoic acid] stands not above 10 nM; under `Cc1c([C@H](CC(=O)O)c2cc(CN3C[C@@H](C4CC4)Oc4ccc(O)nc4C3C)c3sccc3c2)ccc2c1nnn2C` (single isomer, unassigned) [Example 84, (3R)-3-(7-{[(2R,5R*)-2-Cyclopropyl-7-hydroxy-5-methyl-2,3-dihydropyrido[2,3-f][1,4]oxazepin-4(5H)-yl]methyl}-1-benzothiophen-5-yl)-3-(1,4-dimethyl-1H-benzotriazol-5-yl)propanoic acid], 30 to 100 nM; under `CC[C@@H]1CN(Cc2cc(C(CC(=O)O)c3ccc4c(nnn4C)c3C)cc3c2CCC3)S(=O)(=O)c2ccc(Cl)cc2O1` (stereo partly drawn) [Example 15, 3-(7-{[(4R)-7-Chloro-4-ethyl-1,1-dioxido-3,4-dihydro-2H-5,1,2-benzoxathiazepin-2-yl]methyl}-2,3-dihydro-1H-inden-5-yl)-3-(1,4-dimethyl-1H-benzotriazol-5-yl)propanoic acid], 30 to 100 nM.

`Cc1c(C(CC(=O)O)c2cc3c(c(CN4CC5(CCOCC5)Oc5ncccc5S4(=O)=O)c2)CCC3)ccc2c1nnn2C` (centres unmarked) [Example 33, 3-(1,4-Dimethyl-1H-benzotriazol-5-yl)-3-{7-[(1,1′-dioxido-2,3,5,6-tetrahydrospiro[pyran-4,4′-pyrido[2,3-b][1,4,5]oxathiazepine]-2′(3′H)-yl)methyl]-2,3-dihydro-1H-inden-5-yl}propanoic acid]: the IC50 lay within 30 to 100 nM. In turn, `Cc1c(C(CC(=O)O)c2cc3c(c(CN4CC5(CCC5)Oc5ncccc5S4(=O)=O)c2)CCC3)ccc2c1nnn2C` (centres unmarked) [Example 35, 3-(1,4-Dimethyl-1H-benzotriazol-5-yl)-3-{7-[(1,1′-dioxido-spiro[cyclobutane-1,4′-pyrido[2,3-b][1,4,5]oxathiazepine]-2′(3′H)-yl)methyl]-2,3-dihydro-1H-inden-5-yl}propanoic acid] registered an IC50 of 10 to 30 nM. As for `Cc1c(C(CC(=O)O)c2cc3c(c(CN4CC5(COC5)Oc5ncccc5S4(=O)=O)c2)CCC3)ccc2c1nnn2C` (centres unmarked) [Example 36, 3-(1,4-Dimethyl-1H-benzotriazol-5-yl)-3-{7-[(1,1′-dioxido-spiro[oxetane-3,4′-pyrido[2,3-b][1,4,5]oxathiazepine]-2′ (3′H)-yl)methyl]-2,3-dihydro-1H-inden-5-yl}propanoic acid], the IC50 is 10 to 30 nM. As for `CC[C@@H]1CN(Cc2cc([C@H](CC(=O)O)c3ccc4c(nnn4C)c3C)cc3ccsc23)[C@@H](C)c2ncccc2O1` [Example 62, (3S)-3-(1,4-Dimethyl-1H-benzotriazol-5-yl)-3-(7-{[(2R,5S)-2-ethyl-5-methyl-2,3-dihydropyrido[2,3-f][1,4]oxazepin-4(5H)-yl]methyl}-1-benzothiophen-5-yl)propanoic acid], the figure is 10 to 30 nM.
